Experiments:
Test in all cases: Herbicidal activity, pot culture method (primary and secondary screening test)
Type in all cases: in vivo
Details in all cases: primary screening, pot culture, 150 g/ha, sprayed at 3-leaf stage, result 15 days later
abutilon theophrasti = system: abutilon theophrasti
Source text: (§1) This test example is for describing the herbicidal activity inhibition ratio (%) (the dose is 150 g/ha) of the compound with a structure shown in Formula (I). Primary screening test (pot culture method): The test targets are abutilon theophrasti, digitaria sanguinalis, amaranthus retroflexus, echinochloa crusgalli, eclipta prostrata and setaria viridis. Take flowerpots with an inner diameter of 6 cm, put composite soil (vegetable garden soil:seedling matrix=1:2, v/v) into them till 3⁄4 of flowerpot height, directly sow the above six weed targets (budding rate>85%), cover them with 0.2 cm thick soil, and keep them for future use when the weeds grow to 3-leaf stage. Each compound is dissolved in N,N-dimethylformamide at a dose of 150 g/ha and diluted with distilled water into a 0.2 g/L solution. The solution is sprayed through an automatic spray tower. After the solution on weed leaves is aired dry, the flowerpots are moved into a greenhouse for cultivation. The result is investigated 15 days later. By the same method adopted in primary screening test, a secondary screening test is done on some typical compounds, such as: 5, 6, 20, 21, 23, 34, 47, 65, 66, 70 and 91 at a reduced dose, and the test result is compared with mesotrione which is commercially available and has a good herbicidal effect. The test method is same as that adopted in primary screening test. Mesotrione is bought from Hubei […] Chemical Co., Ltd.

amaranthus retroflexus = system: amaranthus retroflexus
Source text: as §1

digitaria sanguinalis = system: digitaria sanguinalis
Source text: as §1

echinochloa crusgalli = system: echinochloa crusgalli
Source text: as §1

eclipta prostrata = system: eclipta prostrata
Source text: as §1

setaria viridis = system: setaria viridis
Source text: as §1

What does the source list for `Cn1c(=O)n(-c2ccc(F)cc2)c(=O)c2cc(C(=O)C3=C(O)CC(C)(C)CC3=O)ccc21` [Compound 22]?
herbicidal activity inhibition ratio (%), Abutilon theophrasti (abutilon theophrasti): 100%; herbicidal activity inhibition ratio (%), Amaranthus retroflexus (amaranthus retroflexus): 100%; herbicidal activity inhibition ratio (%), Digitaria sanguinalis (digitaria sanguinalis): 95%; herbicidal activity inhibition ratio (%), Echinochloa crusgalli (echinochloa crusgalli): 80%; herbicidal activity inhibition ratio (%), Eclipta prostrata (eclipta prostrata): 90%; herbicidal activity inhibition ratio (%), Setaria viridis (setaria viridis): 95%

With `Cn1c(=O)n(-c2cccc(Br)c2)c(=O)c2cc(C(=O)C3=C(O)CC(C)(C)CC3=O)ccc21` [Compound 24] as the molecule, how does the “herbicidal activity inhibition ratio (%), Abutilon theophrasti” value (abutilon theophrasti) read?
The value was 93%.

What about the “herbicidal activity inhibition ratio (%), Amaranthus retroflexus” value (amaranthus retroflexus) of the same molecule?
Its value is 80%.

What about the “herbicidal activity inhibition ratio (%), Digitaria sanguinalis” value (digitaria sanguinalis) of the same molecule?
Its value is 60%.

And the “herbicidal activity inhibition ratio (%), Echinochloa crusgalli” value (echinochloa crusgalli)?
The value was 30%.

And the “herbicidal activity inhibition ratio (%), Eclipta prostrata” value (eclipta prostrata)?
Its value is 83%.

And the “herbicidal activity inhibition ratio (%), Setaria viridis” value (setaria viridis)?
The value was 10%.

`Cn1c(=O)n(-c2ccc(Br)cc2)c(=O)c2cc(C(=O)C3=C(O)CCCC3=O)ccc21` [Compound 25] was tested. Which “herbicidal activity inhibition ratio (%), Abutilon theophrasti” value (abutilon theophrasti) did it give?
Its value is 80%.

And the “herbicidal activity inhibition ratio (%), Amaranthus retroflexus” value (amaranthus retroflexus)?
The value was 95%.

What about the “herbicidal activity inhibition ratio (%), Digitaria sanguinalis” value (digitaria sanguinalis) of the same molecule?
Its value is 80%.

What about the “herbicidal activity inhibition ratio (%), Echinochloa crusgalli” value (echinochloa crusgalli) of the same molecule?
Its value is 80%.

And the “herbicidal activity inhibition ratio (%), Eclipta prostrata” value (eclipta prostrata)?
Its value is 83%.

And the “herbicidal activity inhibition ratio (%), Setaria viridis” value (setaria viridis)?
The value was 35%.

For `Cn1c(=O)n(-c2ccc(Br)cc2)c(=O)c2cc(C(=O)C3=C(O)CC(C)(C)CC3=O)ccc21` [Compound 26], which “herbicidal activity inhibition ratio (%), Abutilon theophrasti” value (abutilon theophrasti) is on record?
Its value is 100%.

What about the “herbicidal activity inhibition ratio (%), Amaranthus retroflexus” value (amaranthus retroflexus) of the same molecule?
Its value is 100%.

And the “herbicidal activity inhibition ratio (%), Digitaria sanguinalis” value (digitaria sanguinalis)?
The value was 93%.

What about the “herbicidal activity inhibition ratio (%), Echinochloa crusgalli” value (echinochloa crusgalli) of the same molecule?
Its value is 85%.

What about the “herbicidal activity inhibition ratio (%), Eclipta prostrata” value (eclipta prostrata) of the same molecule?
Its value is 88%.

And the “herbicidal activity inhibition ratio (%), Setaria viridis” value (setaria viridis)?
The value was 30%.

What does the source list for `Cn1c(=O)n(-c2ccccc2Br)c(=O)c2cc(C(=O)C3=C(O)CCCC3=O)ccc21` [Compound 27]?
herbicidal activity inhibition ratio (%), Abutilon theophrasti (abutilon theophrasti): 83%; herbicidal activity inhibition ratio (%), Amaranthus retroflexus (amaranthus retroflexus): 100%; herbicidal activity inhibition ratio (%), Digitaria sanguinalis (digitaria sanguinalis): 90%; herbicidal activity inhibition ratio (%), Echinochloa crusgalli (echinochloa crusgalli): 90%; herbicidal activity inhibition ratio (%), Eclipta prostrata (eclipta prostrata): 80%; herbicidal activity inhibition ratio (%), Setaria viridis (setaria viridis): 60%

What does the source list for `Cn1c(=O)n(-c2ccccc2Br)c(=O)c2cc(C(=O)C3=C(O)CC(C)(C)CC3=O)ccc21` [Compound 28]?
herbicidal activity inhibition ratio (%), Abutilon theophrasti (abutilon theophrasti): 100%; herbicidal activity inhibition ratio (%), Amaranthus retroflexus (amaranthus retroflexus): 95%; herbicidal activity inhibition ratio (%), Digitaria sanguinalis (digitaria sanguinalis): 95%; herbicidal activity inhibition ratio (%), Echinochloa crusgalli (echinochloa crusgalli): 85%; herbicidal activity inhibition ratio (%), Eclipta prostrata (eclipta prostrata): 83%; herbicidal activity inhibition ratio (%), Setaria viridis (setaria viridis): 35%

How did the “herbicidal activity inhibition ratio (%), Abutilon theophrasti” value (abutilon theophrasti) turn out when `COc1ccccc1-n1c(=O)c2cc(C(=O)C3=C(O)CCCC3=O)ccc2n(C)c1=O` [Compound 29] was run?
Its value is 90%.

And the “herbicidal activity inhibition ratio (%), Amaranthus retroflexus” value (amaranthus retroflexus)?
The value was 100%.

What about the “herbicidal activity inhibition ratio (%), Digitaria sanguinalis” value (digitaria sanguinalis) of the same molecule?
The value was 88%.

And the “herbicidal activity inhibition ratio (%), Echinochloa crusgalli” value (echinochloa crusgalli)?
The value was 90%.

And the “herbicidal activity inhibition ratio (%), Eclipta prostrata” value (eclipta prostrata)?
Its value is 65%.

And the “herbicidal activity inhibition ratio (%), Setaria viridis” value (setaria viridis)?
The value was 60%.

How did the “herbicidal activity inhibition ratio (%), Abutilon theophrasti” value (abutilon theophrasti) turn out when `Cn1c(=O)n(-c2ccc(C(F)(F)F)cc2)c(=O)c2cc(C(=O)C3=C(O)CCCC3=O)ccc21` [Compound 30] was run?
Its value is 100%.

And the “herbicidal activity inhibition ratio (%), Amaranthus retroflexus” value (amaranthus retroflexus)?
Its value is 100%.

What about the “herbicidal activity inhibition ratio (%), Digitaria sanguinalis” value (digitaria sanguinalis) of the same molecule?
Its value is 60%.

What about the “herbicidal activity inhibition ratio (%), Echinochloa crusgalli” value (echinochloa crusgalli) of the same molecule?
The value was 85%.

And the “herbicidal activity inhibition ratio (%), Eclipta prostrata” value (eclipta prostrata)?
The value was 60%.

What about the “herbicidal activity inhibition ratio (%), Setaria viridis” value (setaria viridis) of the same molecule?
The value was 30%.

How did the “herbicidal activity inhibition ratio (%), Abutilon theophrasti” value (abutilon theophrasti) turn out when `Cn1c(=O)n(-c2ccc(C(F)(F)F)cc2)c(=O)c2cc(C(=O)C3=C(O)CC(C)(C)CC3=O)ccc21` [Compound 31] was run?
Its value is 60%.

And the “herbicidal activity inhibition ratio (%), Amaranthus retroflexus” value (amaranthus retroflexus)?
The value was 80%.

What about the “herbicidal activity inhibition ratio (%), Digitaria sanguinalis” value (digitaria sanguinalis) of the same molecule?
Its value is 60%.

And the “herbicidal activity inhibition ratio (%), Echinochloa crusgalli” value (echinochloa crusgalli)?
Its value is 40%.

What about the “herbicidal activity inhibition ratio (%), Eclipta prostrata” value (eclipta prostrata) of the same molecule?
The value was 55%.

What about the “herbicidal activity inhibition ratio (%), Setaria viridis” value (setaria viridis) of the same molecule?
Its value is 10%.

— US9771334B2, “Triketone compound and preparation method and use thereof” (SHANDONG CYNDA CHEMICAL CO., LTD., priority 2013, dated 2017)
